Reference: patent publication US20040192697A1, “Pyrrolopyridine potassium channel openers” (priority 2002, published 2004)

Tests used:
[1] = test system: Landrace pig bladder strips; test: In vitro functional model: field-stimulated bladder tissue strips; details: dose dependent over concentration range of 10^−9 to 10^−5 M; control agonist
Procedure: In vitro Functional Model
Compounds were evaluated for functional BK channel opening activity using tissue strips obtained from Landrace pig bladders. Landrace pig bladders were obtained from female Landrace pigs of 9-30 kg. Landrace pigs were euthanized with an intraperitoneal injection of pentobarbital solution, Somlethal®, J. A. Webster Inc., Sterling Mass. The entire bladder was removed and immediately placed into Krebs Ringer bicarbonate solution (composition, mM: NaCl, 120; NaHCO3, 20; dextrose, 11; KCl, 4.7; CaCl2, 2.5; MgSO4, 1.5; KH2PO4, 1.2; K2EDTA, 0.01, equilibrated with 5% CO2/95% O2 pH 7.4 at 37° C.). Propranolol (0.004 mM) was included in all of the assays to block β-adrenoceptors. The trigonal and dome portions were discarded. Strips 3-5 mm wide and 20 mm long were prepared from the remaining tissue cut in a circular fashion. The mucosal layer was removed. One end was fixed to a stationary glass rod and the other to a Grass FT03 transducer at a basal preload of 1.0 gram. Two parallel platinum electrodes were included in the stationary glass rod to provide field stimulation of 0.05 Hz, 0.5 milli-seconds at 20 volts. […] The maximal efficacy of each compound (expressed as % relative to P1075) is reported. […] Agonist potencies were also expressed as an index relative to P1075. The index was calculated by dividing the ED50 for P1075 by the ED50 for the test agonist in a given tissue. […]

Row | melting point [°C] | SMILES | effect on stimulated twitch of bladder strips [1]
1 | 207 to 209 | N#Cc1c(N2CCC[C@H]2CO)[nH]c2cccnc12 [Example 10, (S)-2-(2-Hydroxymethyl-pyrrolidin-1-yl)-1H-pyrrolo[3,2-b]pyridine-3-carbonitrile] | 
2 | 241 to 242 | N#Cc1c(N2CCCCC2)[nH]c2cccnc12 [Example 18, 2-Piperidin-1-yl-1H-pyrrolo[3,2-b]pyridine-3-carbonitrile] | 
3 |  | CCC(C)(C)N=C(NC#N)Nc1cccnc1 [Example P1075] | completely eliminated the stimulated twitch
